Activity calls are given as the source filed them. The rule behind the calls is not given here.
These compounds were tested against Peptidyl-prolyl cis-trans isomerase FKBP1A (Homo sapiens) (UniProt P62942) (assay: FKBP12 binders, biophysical, NMR detection (AID 608)). Details: NMR binding, purified FKBP12.
Chain of Peptidyl-prolyl cis-trans isomerase FKBP1A (Homo sapiens) (P62942 whole entry, looked up): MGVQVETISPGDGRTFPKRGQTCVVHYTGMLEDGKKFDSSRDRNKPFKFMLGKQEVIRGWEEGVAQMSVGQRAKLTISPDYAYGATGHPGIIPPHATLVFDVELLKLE

| SMILES | Kd |
| --- | --- |
| CSc1n[nH]c(NCc2ccccc2)n1 | > 4 mM (inactive) |
| COc1ccc2nc(N)sc2c1 | > 4 mM (inactive) |
| Nc1nonc1-c1nc2ccccc2[nH]1 | > 4 mM (inactive) |
| CCOC(=O)CC1Sc2ccccc2NC1=O (configuration not stated) | > 4 mM (inactive) |
| CC(=O)c1cc(C)ccc1O | > 4 mM (inactive) |
| COc1ccc(-c2nc3nc(C)cc(C)n3n2)cc1 | > 4 mM (inactive) |
| CNC(=O)C(=O)NCc1ccc(C)cc1 | > 4 mM (inactive) |
| O=C(c1sc2cc(Cl)cc(Cl)c2c1Cl)N1CCOCC1 | inactive |
| COc1cc(-c2coc3cc(O[C@@H]4O[C@H](CO)[C@@H](O)[C@H](O)[C@H]4O)c(OC)c(O)c3c2=O)cc(O)c1OC | > 4 mM (inactive) |
| Nc1ccccc1-n1cccn1 | > 4 mM (inactive) |
| CC(O)c1nc2ccccc2[nH]1 (configuration not stated) | > 4 mM (inactive) |
| NCCN=C1NS(=O)(=O)c2ccccc21 | > 4 mM (inactive) |
| CC(=O)NC12CC3CC(C)(C1)CC(NC(C)=O)(C3)C2 | > 4 mM (inactive) |
| CN(C)c1ccc(C2CC(=O)CC(=O)C2)cc1 | > 4 mM (inactive) |
| CC(=O)c1c(O)c(C)c(O)c2c1OC1=CC(=O)C(C(C)=O)C(=O)C12C (configuration not stated) | > 4 mM (inactive) |
| CN1CCC(NC(=O)C2CCCO2)CC1 (configuration not stated) | > 4 mM (inactive) |
| CNC(=O)c1ccccc1-c1ccccc1 | > 4 mM (inactive) |
| CCc1ccccc1NC(=O)c1ccoc1C | > 4 mM (inactive) |
| COc1ccc(C(C)=O)c(OC)c1 | > 4 mM (inactive) |
| CC(=O)N1CCN(C2CCSC2)CC1 (configuration not stated) | > 4 mM (inactive) |
| S=c1nc2c(n[nH]1)[nH]c1ccccc12 | > 4 mM (inactive) |

| SMILES | Kd |
| --- | --- |
| Cc1cc(NC(=O)Cc2cccs2)no1 | > 4 mM (inactive) |
| O=C(Nc1ccccc1F)c1ccncc1 | > 4 mM (inactive) |
| Cc1cc(C(=O)NCc2ccco2)cs1 | > 4 mM (inactive) |
| O=c1/c(=C\c2cccnc2)sc2nc3ccccc3n12 | > 4 mM (inactive) |
| NCc1ccc2occc2c1 | > 4 mM (inactive) |
| O=C(c1cc2ccccc2o1)c1nc2c(n1O)CCCCC2 | > 4 mM (inactive) |
| NC1=NC(=O)/C(=C/c2ccccc2[N+](=O)[O-])S1 | > 4 mM (inactive) |
| COc1cccc(NC(=O)c2ncn[nH]2)c1 | > 4 mM (inactive) |
| CC12CCC(O)CC1CCC1C2[C@H](O)CC2(C)C(C3=CC(=O)OC3)CCC12O (some centres not stated) | > 4 mM (inactive) |
| CN1C(=O)/C(=C/c2ccc(O)cc2O)SC1=S | > 4 mM (inactive) |
| Cc1cc(CN2C(=O)c3ccccc3C2=O)on1 | > 4 mM (inactive) |
| Nc1ccc2c(C(F)(F)F)cc(=O)oc2c1 | > 4 mM (inactive) |
| Cc1cc(C(=O)NCc2cccs2)c(C)o1 | > 4 mM (inactive) |
| CNC(=O)C1CCCN(S(C)(=O)=O)C1 (configuration not stated) | > 4 mM (inactive) |
| Nc1cccc2nsnc12 | > 4 mM (inactive) |
| N#Cc1cc2c(nc1SCc1ccncc1)CCC2 | > 4 mM (inactive) |
| Cc1nc2ccccc2c(=O)n1NC(=O)Nc1ccccc1 | > 4 mM (inactive) |
| NCc1ccc2c(c1)CCO2 | > 4 mM (inactive) |
| CC(=O)C1CCC2C3CCC4C[C@H](O)CCC4(C)C3C[C@H](O)C12C (some centres not stated) | > 4 mM (inactive) |
| O=C(Nc1ccccc1)NC1CCS(=O)(=O)C1 (configuration not stated) | > 4 mM (inactive) |
| CC(C)(CO)NC(=O)c1ccccc1F | > 4 mM (inactive) |

— PubChem BioAssay AID608 (Sanford-Burnham Center for Chemical Genomics, 2007)
